Reference: patent US20110262451A1, “MODULATORS OF ISOVALERYL-COENZYME A DEHYDROGENASE IN THE TREATMENT OF ACNE, OF SEBORRHOEIC DERMATITIS OR OF HYPERSEBORRHOEA” (priority 2008, published 2011)

Key:
PPARγ = assay: qRT-PCR expression of PPARγ in rat sebaceous gland (epidermal split) after topical PPARgamma agonist; assay type: in vivo; settings: topical 1% in acetone, T = 96 h, female FUZZY rat, relative induction versus carrier group, standardized to 18S
Protocol: (§1) • Strain: Ico: Hsd: FUZZY-fz • Gender: female • Age: 10 weeks Number per batch: 40 (8 animals per group) Treatment: Route of administration: topical • Compound/batch: PPARgamma agonist (rosiglitazone) • Doses: 1% • Carrier: acetone (001) • Duration 96 hours Method of evaluation: The animals are weighed at the beginning and at the end of the study. Skin biopsies are taken (6 samples of skin excised per rat) in order to analyze the expression of the genes (RNA extraction, reverse transcriptas and real-time PCR). The samples are stored overnight at 4° C. before incubation in 1M sodium bromide (NaBr) for 2 hours at 37° C. After incubation, the samples are separated into epidermis or dermis. The epidermal samples are stored at […] Under these conditions, the sebaceous glands are in the epidermal split. PCRs are carried out, beginning with the cDNAs originating from the epidermal splits containing sebaceous glands from control rats or rats treated with the PPARγ agonist: the mRNA is extracted using a column and quantified. The quality of the mRNAs is measured and is represented by the 18S/28S ratio. The results are standardized with respect to 18S expressed as relative induction versus untreated animals (carrier group). The statistical analysis is obtained using internal software based on a modified Monte Carlo statistical analysis.

IVD = assay: qRT-PCR expression of IVD in rat sebaceous gland (epidermal split) after topical PPARgamma agonist; assay type: in vivo; settings: topical 1% in acetone, T = 96 h, female FUZZY rat, relative induction versus carrier group, standardized to 18S
Protocol: as §1

[1] = tested on: isovaleryl-coenzyme A dehydrogenase; settings: cited from earlier work

Compound | Induction factor (PPARγ) (PPARγ) | Induction factor (IVD) (IVD) | Inhibition of isovaleryl-coenzyme A dehydrogenase [1]
COCCOCOc1ccc2cc(C(=O)N(C)Cc3cccc(-c4ccc(CC5SC(=O)NC5=O)cc4)c3)ccc2c1 (stereo not drawn) [PPARgamma agonist, 6-(2-methoxyethoxy-methoxy)naphthalene-2-carboxylic acid [4′-(2,4-dioxothiazolidin-5-ylmethyl)biphenyl-3-ylmethyl]methyl-amide] | 0.11 | 0.11 | –
C=C1C[C@@H]1C[C@H](N)C(=O)O [hypoglycine A] | – | – | inhibitor
